# Experimental data: publication PMC4818591 (ChemMedChem, 2015)
# Where two headings read alike, the source gives them in different places.
# What was measured:
# Format in all cases: biochemical
# HDAC1 = HDAC1 (Homo sapiens, UniProt Q13547); assay: HDAC1 isozyme inhibition; settings: for SI HDAC1/6: selectivity index
# HDAC2 = HDAC2 (Homo sapiens, UniProt Q92769); assay: HDAC2 isozyme inhibition; settings: for SI HDAC2/6: selectivity index
# HDAC3 = HDAC3 (Homo sapiens, UniProt O15379); assay: HDAC3 isozyme inhibition; settings: for SI HDAC3/6: selectivity index
# Chain of HDAC3 (O15379 whole entry): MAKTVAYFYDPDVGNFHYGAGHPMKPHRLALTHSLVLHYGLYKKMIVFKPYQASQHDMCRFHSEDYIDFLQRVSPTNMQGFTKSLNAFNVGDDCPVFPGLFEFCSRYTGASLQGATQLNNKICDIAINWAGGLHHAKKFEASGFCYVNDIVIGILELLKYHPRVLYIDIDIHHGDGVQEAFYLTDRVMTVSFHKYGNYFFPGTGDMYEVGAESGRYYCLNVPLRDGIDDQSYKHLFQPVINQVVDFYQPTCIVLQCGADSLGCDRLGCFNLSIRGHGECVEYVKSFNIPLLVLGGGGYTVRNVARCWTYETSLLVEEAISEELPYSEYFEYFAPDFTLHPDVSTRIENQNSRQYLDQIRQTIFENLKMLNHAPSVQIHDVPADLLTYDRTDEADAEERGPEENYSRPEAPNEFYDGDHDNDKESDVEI
# Chain of HDAC3 (Q9Y618 395-489 partner limits assumed): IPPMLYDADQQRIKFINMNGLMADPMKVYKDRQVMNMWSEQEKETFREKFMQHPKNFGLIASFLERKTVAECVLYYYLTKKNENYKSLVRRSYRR
# HDAC10 = target: T1, HDAC10 (Homo sapiens, UniProt Q969S8); assay: HDAC10 isozyme inhibition; settings: for SI HDAC10/6: selectivity index
# T1 sequence (Q969S8 1-669): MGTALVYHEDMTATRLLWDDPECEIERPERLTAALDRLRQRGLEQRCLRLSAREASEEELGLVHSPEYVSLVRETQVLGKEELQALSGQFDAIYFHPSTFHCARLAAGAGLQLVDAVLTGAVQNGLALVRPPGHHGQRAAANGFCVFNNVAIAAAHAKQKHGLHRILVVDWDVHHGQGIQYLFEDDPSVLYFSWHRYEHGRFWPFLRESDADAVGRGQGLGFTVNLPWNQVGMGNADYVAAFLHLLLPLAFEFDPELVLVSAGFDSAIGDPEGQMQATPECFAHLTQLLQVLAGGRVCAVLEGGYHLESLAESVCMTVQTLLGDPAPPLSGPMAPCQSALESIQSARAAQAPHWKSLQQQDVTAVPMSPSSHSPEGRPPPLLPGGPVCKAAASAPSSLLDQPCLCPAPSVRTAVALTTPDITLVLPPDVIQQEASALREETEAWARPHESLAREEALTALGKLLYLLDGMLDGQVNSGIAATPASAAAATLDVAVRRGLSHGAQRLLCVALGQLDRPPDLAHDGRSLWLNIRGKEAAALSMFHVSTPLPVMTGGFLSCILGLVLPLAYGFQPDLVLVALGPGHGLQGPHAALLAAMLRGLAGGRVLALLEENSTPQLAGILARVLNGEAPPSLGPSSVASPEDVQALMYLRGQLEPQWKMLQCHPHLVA
# HDAC6 = target: T2, HDAC6 (Homo sapiens, UniProt Q9UBN7); assay: HDAC6 isozyme inhibition; settings: for IC50: read-out: HDAC Isoform, IC50, Class II, 6, duplicate, 10-dose IC50 mode, 3-fold serial dilution starting at 30 μM, average ± standard deviation; for selectivity over HDAC1 and HDAC3: HDAC6 versus HDAC1 and HDAC3; for selectivity over HDAC2 and HDAC10: HDAC6 versus HDAC2 and HDAC10
# T2 sequence (Q9UBN7 1-1215): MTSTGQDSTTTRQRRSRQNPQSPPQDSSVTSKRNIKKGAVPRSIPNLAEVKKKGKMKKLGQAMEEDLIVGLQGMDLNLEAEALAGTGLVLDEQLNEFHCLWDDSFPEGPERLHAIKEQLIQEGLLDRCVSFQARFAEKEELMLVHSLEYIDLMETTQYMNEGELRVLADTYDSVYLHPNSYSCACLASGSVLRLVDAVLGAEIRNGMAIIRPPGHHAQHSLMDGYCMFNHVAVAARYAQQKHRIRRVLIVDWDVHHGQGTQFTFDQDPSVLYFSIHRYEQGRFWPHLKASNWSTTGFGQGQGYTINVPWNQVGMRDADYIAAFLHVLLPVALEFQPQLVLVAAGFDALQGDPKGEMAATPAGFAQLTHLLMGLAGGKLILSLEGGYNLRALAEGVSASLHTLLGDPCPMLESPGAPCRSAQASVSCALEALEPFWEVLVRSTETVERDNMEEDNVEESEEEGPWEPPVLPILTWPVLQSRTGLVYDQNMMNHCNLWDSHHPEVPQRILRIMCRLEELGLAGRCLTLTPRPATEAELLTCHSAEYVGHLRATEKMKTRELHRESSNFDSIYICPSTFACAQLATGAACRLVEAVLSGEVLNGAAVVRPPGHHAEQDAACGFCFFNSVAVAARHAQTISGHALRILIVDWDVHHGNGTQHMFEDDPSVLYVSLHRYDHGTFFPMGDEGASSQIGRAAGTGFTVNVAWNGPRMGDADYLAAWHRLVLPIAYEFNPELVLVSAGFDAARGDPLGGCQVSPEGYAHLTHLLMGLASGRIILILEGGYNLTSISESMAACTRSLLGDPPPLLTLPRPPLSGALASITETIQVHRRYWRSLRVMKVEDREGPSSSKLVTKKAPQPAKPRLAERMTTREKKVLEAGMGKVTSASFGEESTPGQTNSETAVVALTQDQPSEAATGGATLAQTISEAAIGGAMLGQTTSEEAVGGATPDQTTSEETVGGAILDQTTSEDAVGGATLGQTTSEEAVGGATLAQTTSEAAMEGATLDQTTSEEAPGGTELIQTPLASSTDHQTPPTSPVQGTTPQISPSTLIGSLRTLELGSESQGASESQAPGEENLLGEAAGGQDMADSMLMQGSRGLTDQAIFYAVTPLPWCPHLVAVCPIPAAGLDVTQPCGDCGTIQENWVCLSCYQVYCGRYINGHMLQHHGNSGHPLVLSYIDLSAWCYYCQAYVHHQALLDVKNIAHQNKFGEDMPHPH
# [1] = read-out: HDAC Isoform, IC50, Class I, 2, singlet, 10-dose IC50 mode, 3-fold serial dilution starting at 30 μM, >50000 = no inhibition at 50 μM
# [2] = read-out: HDAC Isoform, IC50, Class II, 10, singlet, 10-dose IC50 mode, 3-fold serial dilution starting at 30 μM, >50000 = no inhibition at 50 μM
# [3] = read-out: HDAC Isoform, IC50, Class I, 1, singlet, 10-dose IC50 mode, 3-fold serial dilution starting at 30 μM, >50000 = no inhibition at 50 μM
# [4] = read-out: HDAC Isoform, IC50, Class I, 3, singlet, 10-dose IC50 mode, 3-fold serial dilution starting at 30 μM, >50000 = no inhibition at 50 μM
# Chain of HDAC1 (Q13547 whole entry): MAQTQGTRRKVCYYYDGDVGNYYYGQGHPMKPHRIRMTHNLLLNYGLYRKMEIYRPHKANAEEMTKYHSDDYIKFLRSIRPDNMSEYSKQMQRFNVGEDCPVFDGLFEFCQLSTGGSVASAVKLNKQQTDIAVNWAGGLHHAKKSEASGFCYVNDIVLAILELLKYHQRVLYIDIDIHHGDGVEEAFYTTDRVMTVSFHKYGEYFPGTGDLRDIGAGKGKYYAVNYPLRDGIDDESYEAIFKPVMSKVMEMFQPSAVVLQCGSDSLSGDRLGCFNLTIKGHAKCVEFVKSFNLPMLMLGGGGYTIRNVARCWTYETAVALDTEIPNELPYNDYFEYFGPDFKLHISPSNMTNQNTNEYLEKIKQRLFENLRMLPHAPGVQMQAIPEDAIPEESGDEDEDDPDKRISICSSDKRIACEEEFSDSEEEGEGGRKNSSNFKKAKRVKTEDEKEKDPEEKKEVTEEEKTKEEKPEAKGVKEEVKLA
# Chain of HDAC2 (Q92769 whole entry): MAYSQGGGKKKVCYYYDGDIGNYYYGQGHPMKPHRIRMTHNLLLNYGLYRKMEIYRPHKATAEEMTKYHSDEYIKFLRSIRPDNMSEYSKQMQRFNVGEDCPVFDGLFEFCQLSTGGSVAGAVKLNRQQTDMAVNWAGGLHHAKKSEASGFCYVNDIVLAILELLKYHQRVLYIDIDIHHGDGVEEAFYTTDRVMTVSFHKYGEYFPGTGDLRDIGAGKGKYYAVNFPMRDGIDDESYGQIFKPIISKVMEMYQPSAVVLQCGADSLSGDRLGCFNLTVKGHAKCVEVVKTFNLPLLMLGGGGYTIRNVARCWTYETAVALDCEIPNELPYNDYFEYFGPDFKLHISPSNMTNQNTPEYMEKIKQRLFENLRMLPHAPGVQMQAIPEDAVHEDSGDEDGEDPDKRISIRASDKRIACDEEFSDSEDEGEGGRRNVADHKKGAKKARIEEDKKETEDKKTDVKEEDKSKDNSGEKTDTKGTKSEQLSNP
SMILES,SI HDAC1/6 (HDAC1),SI HDAC2/6 (HDAC2),SI HDAC3/6 (HDAC3),SI HDAC10/6 (HDAC10),also measured
"CC(C)(C)OC(=O)Nc1ccc(-c2csc(NC(=O)CCCc3cc(C(=O)NO)no3)n2)cc1 [Compound 3, N-[4-[2-[4-[3-(N-Hydroxycarbamoyl)isoxazol-5-yl]butyrylamino]thiazol-4-yl]phenyl]carbamic Acid tert-Butyl Ester]",10,28,11,,
"CCOC(=O)Nc1cccc(-c2csc(NC(=O)CCc3cc(C(=O)NO)no3)n2)c1 [Compound 5, N-[3-[2-[3-[3-(N-Hydroxycarbamoyl)isoxazol-5-yl]propionylamino]thiazol-4-yl]phenyl]carbamic Acid Ethyl Ester]",80,333,32,82,
"CC(C)(C)OC(=O)Nc1ccc(-c2cc(C(=O)NCCc3cc(C(=O)NO)no3)no2)cc1 [Compound 6, N-[4-[3-[N-[2-[3-(N-Hydroxycarbamoyl)isoxazol-5-yl]ethyl]carbamoyl]isoxazol-5-yl]phenyl]carbamic Acid tert-Butyl Ester]",2817,,3800,,IC50 (HDAC2; [1]): > 50 µM; IC50 (HDAC10; [2]): > 50 µM; selectivity for HDAC6 over all other isoforms (HDAC6; Table S1 in the supporting information (not available)): highly selective
CC(C)(C)OC(=O)Nc1cccc(-c2cc(C(=O)NCCc3cc(C(=O)NO)no3)no2)c1 [Compound 7],,,,,IC50 (HDAC1; [3]): > 50 µM; IC50 (HDAC2; [1]): > 50 µM; IC50 (HDAC3; [4]): > 50 µM; IC50 (HDAC10; [2]): > 50 µM; IC50 (HDAC6): 0.0077 ± 0.0008 µM
"CCOC(=O)Nc1ccc(-c2cc(C(=O)NCCc3cc(C(=O)NO)no3)no2)cc1 [Compound 8, N-[4-[3-[N-[2-[3-(N-Hydroxycarbamoyl)isoxazol-5-yl]ethyl]carbamoyl]isoxazol-5-yl]phenyl]carbamic Acid Ethyl Ester]",39,409,51,123,
"Nc1cccc(-c2cc(C(=O)NCCc3cc(C(=O)NO)no3)no2)c1 [Compound 9, 5-(3-Aminophenyl)-N-[2-[3-(N-hydroxycarbamoyl)isoxazol-5-yl]ethyl]isoxazole-3-carboxamide]",398,140,105,315,
"CC(C)(C)C(=O)Nc1cccc(-c2cc(C(=O)NCCc3cc(C(=O)NO)no3)no2)c1 [Compound 10, 5-[2-[[5-[3-[(2,2-Dimethylpropionyl)amino]phenyl]isoxazole-3-carbonyl]amino]ethyl]isoxazole-3-carbohydroxyamic Acid]",,,,1910,IC50 (HDAC1; [3]): > 50 µM; IC50 (HDAC2; [1]): > 50 µM; IC50 (HDAC3; [4]): > 50 µM; IC50 (HDAC10; [2]): 40.1 µM; selectivity index (SI) (HDAC6; HDAC6 over the other isoforms tested): at least 1900; IC50 (HDAC6): 0.0212 ± 0.0009 µM
"O=C(NO)c1cc(CCNC(=O)c2cc(-c3cccc(NC(=O)C4CCCCC4)c3)on2)on1 [Compound 11, 5-[3-[(Cyclohexanecarbonyl)amino]phenyl]-N-[2-[3-(N-hydroxycarbamoyl)isoxazol-5-yl]ethyl]isoxazole-3-carboxamide]",,,,,IC50 (HDAC1): > 50 µM; IC50 (HDAC2): > 50 µM; IC50 (HDAC3): > 50 µM; IC50 (HDAC10): > 50 µM
"O=C(Nc1cccc(-c2cc(C(=O)NCCc3cc(C(=O)NO)no3)no2)c1)c1ccccc1 [Compound 12, 5-[3-(Benzoylamino)phenyl]-N-[2-[3-(N-hydroxycarbamoyl)isoxazol-5-yl]ethyl]isoxazole-3-carboxamide]",666,2360,1600,1050,
"CC(C)(C)OC(=O)Nc1ccc(-c2cc(C(=O)NCc3ccc(C(=O)NO)cc3)no2)cc1 [Compound 13, N-[4-[3-[N-[4-(N-Hydroxycarbamoyl)benzyl]carbamoyl]isoxazol-5-yl]phenyl]carbamic Acid tert-Butyl Ester]",1320,5760,409,9580,selectivity over HDAC1 and HDAC3 (HDAC6): at least 400 fold; selectivity over HDAC2 and HDAC10 (HDAC6): more than 3 orders of magnitude
"CC(C)(C)OC(=O)Nc1cccc(-c2cc(C(=O)NCc3ccc(C(=O)NO)cc3)no2)c1 [Compound 14, N-[3-[3-[N-[4-(N-Hydroxycarbamoyl)benzyl]carbamoyl]isoxazol-5-yl]phenyl]carbamic Acid tert-Butyl Ester]",694,2160,1230,4270,selectivity over HDAC1 and HDAC3 (HDAC6): at least 400 fold; selectivity over HDAC2 and HDAC10 (HDAC6): more than 3 orders of magnitude
"O=C(NO)c1ccc(CNC(=O)c2cc(-c3ccc(NC(=O)C4CCCCC4)cc3)on2)cc1 [Compound 15, 5-[4-[(Cyclohexanecarbonyl)amino]phenyl]-N-[4-(N-hydroxycarbamoyl)benzyl]isoxazole-3-carboxamide]",65,461,40,38,
"O=C(NO)c1ccc(CNC(=O)c2cc(-c3cccc(NC(=O)C4CCCCC4)c3)on2)cc1 [Compound 16, 5-[3-[(Cyclohexanecarbonyl)amino]phenyl]-N-[4-(N-hydroxycarbamoyl)benzyl]isoxazole-3-carboxamide]",82,1650,257,73,
"O=C(NO)c1ccc(CNC(=O)c2cc(Cn3c4ccccc4c4ccccc43)on2)cc1 [Compound 18, 5-(9H-Carbazol-9-ylmethyl)-N-[4-(hydroxycarbamoyl)benzyl]isoxazole-3-carboxamide]",825,2280,798,37000,
